{"source": "patent US20040116346A1", "about": "“Affinity small molecules for the EPO receptor” (priority 2002, published 2004)", "tested_on": "Mouse or human bone marrow cells", "experiment": "Formation of erythroid colonies (CFU-e, BFU-e) from bone marrow in methylcellulose", "format": "cell-based", "settings": "mouse and human bone marrow", "method": "Mouse or human bone marrow cells were stimulated in methylcellulose for 7 days (mouse) or 14 days (human) with non-peptide EPO-R modulators. Formation of erythroid colonies was observed. (See FIGS. 6 to 8)\n(1) Dilute human bone marrow 1:1 with sterile PBS. (2) Slowly layer bone marrow into 50 ml tubes containing 20 ml of LSM Lymphocyte separation medium (ICN/Cappel—cat #50494). 50 ml bone marrow will yield 2 tubes. (3) Spin tubes at 2000 rpm for 30 minutes with brake off. (4) Slowly take out the middle layer using a 10 ml pipette and transfer into a new 50 ml tube. (5) Add PBS +0.5% BSA +5 mM EDTA to tube for washing. (6) Spin tube for 5 minutes at speed 4 with brake on. (7) Repeat wash step 2 more times. (8) After 3rd wash, resuspend pellet in SF Iscoves' MDM medium. (9) Count by diluting cells in 3% acetic acid. (10) Dilute cells to desired concentration (5×10^5 cells/ml) and seed onto methylcellulose.\n(1) Tubes containing 3.0 ml of methylcellulose medium (Stemcell Technology, cat #H4230) supplemented with 50 ng/ml hSCF are prepared. (Alternatively the methylcellulose could be supplemented with 50 ng/ml hSCF, 20 ng/ml of hIL-3 and hIL-6). (2) Compounds or EPO of desired concentrations are added to the tubes. […] Colonies are scored on day twelve.\nBone marrow cells were isolated from mouse femurs. […] The colonies were scored on day seven. […]", "data": [{"smiles": "Cc1ccc(Cl)cc1Nc1nc2nc(C)c(NCC3CC3)cn2n1", "note": "[Compound E5]", "values": [{"measurement": "CFU-e formation compared with EPO", "result": "stimulate CFU-e formation to the same extent as EPO"}]}]}
